# According to patent US20100035822A1, “PROLINE-RICH PEPTIDES, PHARMACEUTICAL COMPOSITION, USE OF ONE OR MORE PEPTIDES AND METHOD OF TREATMENT” (priority 2006, published 2010):
# “Also recorded” adds a separate entry of the source.
# Tests used:
# [1] = test system: HUVEC cells (human umbilical vessel endothelial cells); assay: NO (nitrite) production in HUVEC cells; format: cell-based; conditions: 24 hours incubation
# Method: HUVEC cells (human umbilical vessel endothelial cells) were obtained from umbilical vessels, a gift from the University Hospital of the University of São Paulo. Vessels were washed externally with ethanol 96%, and after a diagonal cut at the end of the vessel, a catheter was introduced into the vessel vein, and attached to a three way valve. The vein was washed with 20 ml sterile saline, and the other end of the vessel was tied. One milliliter of a collagenase type IV solution was introduced (0.2 mg/ml/cm of umbilical vessel). The vessel was transferred to a Petri dish (10 cm^2), and incubated for 15 minutes at 37° C. Cells contained inside the cord were removed by massage, and transferred to a sterile tube. Bovine fetal serum was added to a final concentration of 10%, and the suspension was centrifuged for 10 minutes at 3.000 g at 4° C., and the cell pellet was resuspended in 2 ml complete medium (40% Medium 199, 40% DMEM, 18% bovine fetal serum, 1% L-glutamine, 1% penicillin/streptomycin). The cell suspension was transferred to a bottle, previously treated with a 1% gelatin solution (30 min at 4° C.), and 5 mL complete medium was added. The bottle was incubated at 37° C. at 5% CO2 atmosphere. […]
# Cells were grown in Petri dishes to 80% confluence. […] The concentration of nitrite, derived from NO, was measured in the extracellular and the intracellular media.
# [2] = test system: SK-N-AS cells; assay: NO (nitrite) production in SK-N-AS neuroblastoma cells; format: cell-based, human; conditions: 24 hours incubation
# Method: Human neurobalsotma cells (SK-N-AS, ATCC no. CRL-2137) were kept in DMEM, supplemented with 10% FBS (fetal bovine serum) and 1% non-essential amino acids, at 5% CO2 atmosphere, at 37° C., and 95% relative humidity. Cells were treated with trypsin, and replicated when an adequate cell concentration had been reached. The medium was exchanged after 12 hours, and later, every third day.
# The method of Feelisch et al. (Feelisch et al., Concomitant S-, N-, and heme-nitros(yl)ation in biological tissues and fluids: implications for the fate of NO in vivo. FASEB J 16: 1775-1785, 2000) was employed to analyze NO production in the endothelial and neuronal cells described above.
# Cells were grown in Petri dishes to 80% confluence. Peptide SEQ ID NO 8 was added in the concentration range of 0-8 μM to HUVEC cells, and 0-100 μM to SK-N-AS cells, and incubation continued for 24 hours. Subsequently, 1 ml of medium was retrieved (extracellular medium), and replaced by 1 ml 10 mM N-ethylmaleimide. Cells were washed in PBS, and lyzed in RIPA buffer (50 mM Tris pH 7.5, 150 mM NaCl, 1% Nonidet p-40 (NP-40) and 0.5% Na-desoxycholate, 0.1% SDS, 1 mM DTPA, and 10 mM N-ethylmaleimide). Lysats were collected and incubated on ice for 20 minutes and centrifuged. Supernatants were kept at −80° C. […] The concentration of nitrite, derived from NO, was measured in the extracellular and the intracellular media.
# [3] = test system: SK-N-AS cells (human neuroblastoma); assay: Free intracellular Ca2+ concentration in SK-N-AS cells (fluo-3 AM, confocal microscopy); format: cell-based; conditions: 1 μM
# Method: In these experiments the variation in free intracellular calcium [Ca^2+]i concentration was measured in SK-N-AS cells (human neuroblastoma, ATCC No. CRL-2137) after addition of 1 μmolar of peptides SEQ ID NO 1 or SEQ ID NO 8, or of 1 μmolar captopril. Cells were kept in DMEM (Dulbecco Modified Medium), supplemented with 10% fetal bovine serum (FBS) and 1% non-essential amino acids, at 5% CO2 atmosphere, at 37° C., and 95% relative humidity. Cells were treated with trypsin, and replicated at adequate cell concentrations.
# Measurements of variation in the concentration of free [Ca^2+]i were performed with a confocal microscope LSM 510 (Zeiss, Jena, Germany), as described by Martins et al., (Martins et al., Neuronal differentiation of P19 embryonal carcinoma cells modulates kinin B2 receptor gene expression and function. J. Biol. Chem. 280: 19576-19586, 2005). Approximately 5×10^4 SK-N-AS cells were plated on 60 mm plates 24 hours prior to measurement, and then treated with 4 μM fluo-3 AM (Invitrogen Corporation) in 0.5% DMSO and 0.1% non-ionic surfactant pluronic acid F-127 for 30 minutes at 37° C. Cells were washed with DMEM containing 10% FBS, and transferred to defined medium (5 μg/ml insulin, 30 μg/ml transferrin, 20 μM ethanolamine, 30 nM sodium selenite, 1 μM sodium pyruvate, 1% non-essential amino acids, 1 mM glutamine, 100 μg/ml penicillin, 100 μg/ml streptomycin, 10 mM HEPES pH 7.4 in DMEM). The fluorescent fluo-3 AM was excited at 488 nm, and the fluorescence measured at 526 nm.
# Variations in the [Ca^2+]i were measured in non-stimulated cells, and in cells stimulated with peptides SEQ ID NO 1 or SEQ ID NO 8, or with captopril (Sigma Aldrich). Increase of fluorescence was monitored for 2 minutes, and images were acquired in 256×256 pixels every second. At the end of each experiment, 5 μM ionophore (4-Br-A23187) were added, followed by 10 mM EGTA, or 20 μM digitonin to determine maximum and minimum fluorescence, Fmax and Fmin respectively, as described by Grynkiewicz et al., (1985).
# Intracellular calcium concentrations [Ca^2+]i, related to fluorescence (F) values obtained after addition of peptides SEQ ID NO 1 or SEQ ID NO 8, were calculated with the equation: [Ca^2+]=Kd(F−Fmin)/(Fmax−F), assuming Kd=450 nM for fluo-3 AM (Hallett et al., 1990).
Compound,increase of NO generation [1],increase of NO generation [2],change of intracellular [Ca2+]i [3]
<ENWPHPQIPP [SEQ ID NO 8],approximately 100%,approximately 100%,Increase
"CC(CS)C(=O)N1CCC[C@@H]1C(=O)O (stereo partly drawn) [captopril, D-3-mercapto-2-methyl-1-oxopropyl-L-proline, reference compound]",,,no change; also recorded: did not cause any change
